{"source": "PubChem BioAssay AID2060354", "about": "(Molecular Pharmacology Branch, DTP, NCI, 2025)", "system": "519858-162-T-J1-PDC spheroid growth inhibition", "test": "Anticancer human tumor 519858-162-T-J1-PDC patient-derived colon adenocarcinoma cell line growth inhibition [TAK]", "conditions": "spheroids with HUVEC and MSC; for viability, T/C: stronger effect = lower value", "excerpt": "Combinatorial screen of targeted agents with TAK-243 and ipatasertib in multi-cell type tumor spheroids\nA high-throughput screen of multi-cell type tumor spheroids was designed to identify active combinations of targeted small molecules and TAK-243 or ipatasertib. Complex spheroids include a stromal component modeled by human endothelial cells (HUVEC) and fibroblasts modeled by human mesenchymal stem cells (MSCs). The concentration ranges selected for each drug and investigational agent were based upon clinically achievable concentrations if the clinical Cmax of the agent was known.\nCompounds. The drugs and investigational agents: TAK-243 (785004), ipatasertib (767898), everolimus (733504), selumetinib (741078), bortezomib (756655), trametinib (758246), ixazomib (758254), vemurafenib (761431), dabrafenib (764134), sapanisertib (764658), alpelisib (765974), and copanlisib (816437), were obtained from the National Cancer Institute (NCI) Developmental Therapeutics Program Chemical Repository. The FDA-approved anticancer drug set is available from the NCI Developmental Therapeutics Program. […] The stock solutions were prepared in dimethyl sulfoxide (DMSO, Sigma-Aldrich, St. Louis, MO, cat. D2650) at 800-fold the tested concentration and stored at -70 degrees C prior to their use. All drugs and investigational agents were tested over a range starting from a high concentration at or near the clinical Cmax and decreasing in half-log increments. If the clinical Cmax for an agent had not been determined, the highest concentration tested was 10 microM.\nNCI60 Cell Culture. NCI60 cell lines were obtained from the NCI Developmental Therapeutics Program Tumor Repository. For each lot of cells, the Repository performed Applied Biosystems AmpFLSTR Identifiler testing with PCR amplification to confirm consistency with the published Identifier STR profile for each cell line. Cells were kept in continuous culture for no more than 20 passages. The optimal seeding densities for each of the cell lines at each time point assessed were determined prior to performing the concentration response studies. Briefly, the NCI60 human tumor lines were grown as monolayers in RPMI 1640 medium supplemented with 10% FBS and 2 mmol/L L-glutamine.\nAn additional 2 lines were from the NCI60 cell line panel including melanomas, MALME-3M and SK-MEL-2. Pooled donor human umbilical vein endothelial cells (HUVEC, Lonza, cat. CC-2519) and human mesenchymal stem cells (hMSC, Lonza, cat. PT-2501) were purchased from Lonza (Walkersville, MD).\nPDMR cell lines were grown in complete medium (DC medium): Dulbecco's modified Eagle's medium (DMEM)/F12 supplemented with 5% fetal bovine serum (FBS), 2 mM L-glutamine, 100 U/mL penicillin and 100 µg/ml streptomycin, 0.4 µg/ml hydrocortisone, 10 ng/ml epidermal growth factor (EGF) recombinant human protein, 24 µg/mL adenine, and 0.1 mg/mL primocin. During culture from frozen stock vials, PDMR cells were cultured in the same medium containing 10 µM Y-27632 (see Table 3). The PDCs were cultured in complete DMEM/F12 media without 10 microM Y-27632 dihydrochloride for at least two passages prior to the screen. The pooled donor HUVEC and hMSC were cultured in endothelial cell growth medium 2 (PromoCell, Heidelberg, Germany, cat. C-22011) and mesenchymal stem cell growth medium 2 (PromoCell, cat. C-28009), respectively. For all experiments, HUVEC and hMSC were used at passages </=5.\nFor the pre-screen, cell seeding densities were determined from a titration spanning the range from 5,000 to 313 cells per well. The mct-spheroids including 60% malignant cells, 25% HUVEC and 15% MSC dispensed as a mixture into U-bottom Ultra-Low Attachment 384-well plates (Corning, NY)\nHigh-throughput Drug Combination Screening.\nPrior to their inoculation into 384-well plates, malignant cells, HUVEC, and hMSC were removed from T flasks using TrypLE express (Thermo Fisher Scientific, cat. 12605036) and harvested by centrifugation for 5 min at 233 x g. […]", "note": "pIC50: −log10 of the molar value. “And” between values parts separate entries of the source, which are not always exact repeats. Equal values may be shown once.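 Further: spheroids exposed to drugs for 7 days.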", "data": [{"smiles": "CC(C)CC(NC(=O)C(Cc1ccccc1)NC(=O)c1cnccn1)B(O)O", "note": "(stereo not drawn)", "values": [{"measurement": "viability, T/C", "setting": "compound 31.6 pM", "result": "90.9% and 107%"}, {"measurement": "viability, T/C", "setting": "compound 0.0001 µM", "result": "97.5% and 90.8%"}, {"measurement": "viability, T/C", "setting": "compound 0.000316 µM", "result": "91% and 116%"}, {"measurement": "viability, T/C", "setting": "compound 0.001 µM", "result": "88.1% and 106%"}, {"measurement": "viability, T/C", "setting": "compound 0.00316 µM", "result": "89.5% and 109%"}, {"measurement": "viability, T/C", "setting": "compound 0.01 µM", "result": "73.2% and 71.1%"}, {"measurement": "pIC50", "setting": "curve of compound", "result": "< 8.00"}]}, {"smiles": "Cn1cnc2c(F)c(Nc3ccc(Br)cc3Cl)c(C(=O)NOCCO)cc21", "values": [{"measurement": "viability, T/C", "setting": "compound 0.00949 µM", "result": "89.7% and 85.4%"}, {"measurement": "viability, T/C", "setting": "compound 0.03 µM", "result": "76.2% and 71.8%"}, {"measurement": "viability, T/C", "setting": "compound 0.0949 µM", "result": "45.6% and 51.8%"}, {"measurement": "viability, T/C", "setting": "compound 0.3 µM", "result": "32.3% and 33.5%"}, {"measurement": "viability, T/C", "setting": "compound 0.949 µM", "result": "20.3% and 21.6%"}, {"measurement": "viability, T/C", "setting": "compound 3 µM", "result": "17.2% and 18.4%"}, {"measurement": "pIC50", "setting": "curve of compound", "result": "7.05 and 6.97"}]}, {"smiles": "CC(C)n1nc(-c2ccc3oc(N)nc3c2)c2c(N)ncnc21", "note": "+ CC(C)NCC(C(=O)N1CCN(c2ncnc3c2C(C)CC3O)CC1)c1ccc(Cl)cc1", "values": [{"measurement": "pIC50", "setting": "curve of first compound, second compound 0.3 µM", "result": "< 7.00"}, {"measurement": "pIC50", "setting": "curve of first compound, second compound 0.949 µM", "result": "< 7.00"}, {"measurement": "pIC50", "setting": "curve of first compound, second compound 3 µM", "result": "< 7.00"}, {"measurement": "pIC50", "setting": "curve of first compound, second compound 9.49 µM", "result": "< 7.00"}, {"measurement": "pIC50", "setting": "curve of first compound, second compound 30 µM", "result": "< 7.00"}, {"measurement": "viability, T/C", "setting": "second compound 0.3 µM, first compound 0.000316 µM", "result": 110, "unit": "%"}, {"measurement": "viability, T/C", "setting": "second compound 0.3 µM, first compound 0.001 µM", "result": 78.7, "unit": "%"}, {"measurement": "viability, T/C", "setting": "second compound 0.3 µM, first compound 0.00316 µM", "result": 89.7, "unit": "%"}, {"measurement": "viability, T/C", "setting": "second compound 0.3 µM, first compound 0.01 µM", "result": 89.7, "unit": "%"}, {"measurement": "viability, T/C", "setting": "second compound 0.3 µM, first compound 0.0316 µM", "result": 93.8, "unit": "%"}, {"measurement": "viability, T/C", "setting": "second compound 0.3 µM, first compound 0.1 µM", "result": 68.1, "unit": "%"}, {"measurement": "viability, T/C", "setting": "second compound 0.949 µM, first compound 0.000316 µM", "result": 85.7, "unit": "%"}, {"measurement": "viability, T/C", "setting": "second compound 0.949 µM, first compound 0.001 µM", "result": 88.2, "unit": "%"}, {"measurement": "viability, T/C", "setting": "second compound 0.949 µM, first compound 0.00316 µM", "result": 107, "unit": "%"}, {"measurement": "viability, T/C", "setting": "second compound 0.949 µM, first compound 0.01 µM", "result": 83.8, "unit": "%"}, {"measurement": "viability, T/C", "setting": "second compound 0.949 µM, first compound 0.0316 µM", "result": 90, "unit": "%"}, {"measurement": "viability, T/C", "setting": "second compound 0.949 µM, first compound 0.1 µM", "result": 71.1, "unit": "%"}, {"measurement": "viability, T/C", "setting": "second compound 3 µM, first compound 0.000316 µM", "result": 80.5, "unit": "%"}, {"measurement": "viability, T/C", "setting": "second compound 3 µM, first compound 0.001 µM", "result": 102, "unit": "%"}, {"measurement": "viability, T/C", "setting": "second compound 3 µM, first compound 0.00316 µM", "result": 89.3, "unit": "%"}, {"measurement": "viability, T/C", "setting": "second compound 3 µM, first compound 0.01 µM", "result": 83.9, "unit": "%"}, {"measurement": "viability, T/C", "setting": "second compound 3 µM, first compound 0.0316 µM", "result": 71.4, "unit": "%"}, {"measurement": "viability, T/C", "setting": "second compound 3 µM, first compound 0.1 µM", "result": 72.2, "unit": "%"}, {"measurement": "viability, T/C", "setting": "second compound 9.49 µM, first compound 0.000316 µM", "result": 81.9, "unit": "%"}, {"measurement": "viability, T/C", "setting": "second compound 9.49 µM, first compound 0.001 µM", "result": 90.1, "unit": "%"}, {"measurement": "viability, T/C", "setting": "second compound 9.49 µM, first compound 0.00316 µM", "result": 84.1, "unit": "%"}, {"measurement": "viability, T/C", "setting": "second compound 9.49 µM, first compound 0.01 µM", "result": 93.7, "unit": "%"}, {"measurement": "viability, T/C", "setting": "second compound 9.49 µM, first compound 0.0316 µM", "result": 74.1, "unit": "%"}, {"measurement": "viability, T/C", "setting": "second compound 9.49 µM, first compound 0.1 µM", "result": 73.9, "unit": "%"}, {"measurement": "viability, T/C", "setting": "second compound 30 µM, first compound 0.000316 µM", "result": 107, "unit": "%"}, {"measurement": "viability, T/C", "setting": "second compound 30 µM, first compound 0.001 µM", "result": 80.2, "unit": "%"}, {"measurement": "viability, T/C", "setting": "second compound 30 µM, first compound 0.00316 µM", "result": 105, "unit": "%"}, {"measurement": "viability, T/C", "setting": "second compound 30 µM, first compound 0.01 µM", "result": 79, "unit": "%"}, {"measurement": "viability, T/C", "setting": "second compound 30 µM, first compound 0.0316 µM", "result": 67.1, "unit": "%"}, {"measurement": "viability, T/C", "setting": "second compound 30 µM, first compound 0.1 µM", "result": 72.2, "unit": "%"}]}, {"smiles": "CC(=O)Nc1cccc(-n2c(=O)n(C3CC3)c(=O)c3c(Nc4ccc(I)cc4F)n(C)c(=O)c(C)c32)c1", "values": [{"measurement": "viability, T/C", "setting": "compound 94.9 pM", "result": "89.9% and 91.8%"}, {"measurement": "viability, T/C", "setting": "compound 0.0003 µM", "result": "93.7% and 106%"}, {"measurement": "viability, T/C", "setting": "compound 0.000949 µM", "result": "72.7% and 67.4%"}, {"measurement": "viability, T/C", "setting": "compound 0.003 µM", "result": "71.1% and 79.3%"}, {"measurement": "viability, T/C", "setting": "compound 0.00949 µM", "result": "34.1% and 44.1%"}, {"measurement": "viability, T/C", "setting": "compound 0.03 µM", "result": "21.4% and 26.3%"}, {"measurement": "pIC50", "setting": "curve of compound", "result": "8.25 and 8.07"}]}, {"smiles": "Cc1nc(NC(=O)N2CCCC2C(N)=O)sc1-c1ccnc(C(C)(C)C(F)(F)F)c1", "note": "(stereo not drawn)", "values": [{"measurement": "viability, T/C", "setting": "compound 0.0316 µM", "result": "104% and 89.1%"}, {"measurement": "viability, T/C", "setting": "compound 0.1 µM", "result": "79.9% and 74%"}, {"measurement": "viability, T/C", "setting": "compound 0.316 µM", "result": "91% and 80.8%"}, {"measurement": "viability, T/C", "setting": "compound 1 µM", "result": "81.2% and 80.4%"}, {"measurement": "viability, T/C", "setting": "compound 3.16 µM", "result": "79.6% and 74%"}, {"measurement": "viability, T/C", "setting": "compound 10 µM", "result": "61.9% and 50%"}, {"measurement": "pIC50", "setting": "curve of compound", "result": "< 5.00 and 5.00"}]}]}
